Values quoted from earlier work, collected in patent publication US11191866B2, “Dressing enabling the controlled and prolonged release of metformin” (Urgo Recherche Innovation et Developpement, priority 2016, dated 2021).

Conditions: rats; radioactively marked, deposited on a wound in a gel

CN(C)C(=N)N=C(N)N [metformin]
time remaining at the local level on the wound: remained for a very short period of time at the local level
